Patent publication US8741931B2, “Kinase inhibitors” (priority 2007, dated 2014)

Columns and labels:
Format in all cases: biochemical
PKC delta kinase = PKC delta kinase (Homo sapiens, UniProt Q05655); assay: PKC Delta (coupled enzyme assay); settings: 150 μM ATP, 46 nM PKC delta; read-out: Ki PKC delta
Method: (§1) An assay buffer solution was prepared which consisted of 100 mM HEPES (pH 7.5), 10 mM MgCl2, 25 mM NaCl, 0.1 mM EDTA and 0.01% Brij. […] To 16 μL of this enzyme buffer, in a 384 well plate, was added 1 μL of VRT stock solution in DMSO. The mixture was allowed to equilibrate for 10 mins at 30° C. […] Ki values were calculated from initial rate data by non-linear regression using the Prism software package (Prism 4.0a, Graphpad Software, San Diego, Calif.).

PKC alpha kinase = PKC alpha kinase (Homo sapiens, UniProt P17252); assay: PKC Alpha (coupled enzyme assay); settings: 130 μM ATP, 4.5 nM PKC alpha
Method: as §1, with “EDTA, 100 μM CaCl2” for “EDTA”

PKC theta kinase = PKC theta kinase (Homo sapiens, UniProt Q04759); assay: PKC Theta I (coupled enzyme assay, absorbance at 340 nm); settings: 240 μM ATP, 18 nM PKC theta, absorbance read out
Sequence of PKC theta kinase (Q04759 whole entry): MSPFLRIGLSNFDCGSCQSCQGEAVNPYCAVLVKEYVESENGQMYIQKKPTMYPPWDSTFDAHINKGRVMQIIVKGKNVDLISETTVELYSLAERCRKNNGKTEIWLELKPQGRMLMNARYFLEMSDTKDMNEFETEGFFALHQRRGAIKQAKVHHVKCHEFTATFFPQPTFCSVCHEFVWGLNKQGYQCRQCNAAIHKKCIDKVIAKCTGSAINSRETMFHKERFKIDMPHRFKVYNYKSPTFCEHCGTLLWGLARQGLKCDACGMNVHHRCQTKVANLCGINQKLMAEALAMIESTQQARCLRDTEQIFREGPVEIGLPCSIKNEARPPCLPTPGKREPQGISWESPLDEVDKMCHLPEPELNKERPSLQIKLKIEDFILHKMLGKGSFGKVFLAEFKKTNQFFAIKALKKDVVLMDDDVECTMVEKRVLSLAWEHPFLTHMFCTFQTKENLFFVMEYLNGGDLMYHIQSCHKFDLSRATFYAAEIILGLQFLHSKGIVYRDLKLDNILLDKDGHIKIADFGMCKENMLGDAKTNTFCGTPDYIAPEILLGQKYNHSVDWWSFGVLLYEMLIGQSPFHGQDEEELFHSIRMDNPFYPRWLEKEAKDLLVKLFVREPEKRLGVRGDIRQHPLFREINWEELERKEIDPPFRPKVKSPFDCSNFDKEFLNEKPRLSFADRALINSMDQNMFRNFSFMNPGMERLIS
Method: as §1, with “To 60” for “To 16”, “added 2” for “added 1”

Sequence of PKC delta kinase (Q05655 whole entry): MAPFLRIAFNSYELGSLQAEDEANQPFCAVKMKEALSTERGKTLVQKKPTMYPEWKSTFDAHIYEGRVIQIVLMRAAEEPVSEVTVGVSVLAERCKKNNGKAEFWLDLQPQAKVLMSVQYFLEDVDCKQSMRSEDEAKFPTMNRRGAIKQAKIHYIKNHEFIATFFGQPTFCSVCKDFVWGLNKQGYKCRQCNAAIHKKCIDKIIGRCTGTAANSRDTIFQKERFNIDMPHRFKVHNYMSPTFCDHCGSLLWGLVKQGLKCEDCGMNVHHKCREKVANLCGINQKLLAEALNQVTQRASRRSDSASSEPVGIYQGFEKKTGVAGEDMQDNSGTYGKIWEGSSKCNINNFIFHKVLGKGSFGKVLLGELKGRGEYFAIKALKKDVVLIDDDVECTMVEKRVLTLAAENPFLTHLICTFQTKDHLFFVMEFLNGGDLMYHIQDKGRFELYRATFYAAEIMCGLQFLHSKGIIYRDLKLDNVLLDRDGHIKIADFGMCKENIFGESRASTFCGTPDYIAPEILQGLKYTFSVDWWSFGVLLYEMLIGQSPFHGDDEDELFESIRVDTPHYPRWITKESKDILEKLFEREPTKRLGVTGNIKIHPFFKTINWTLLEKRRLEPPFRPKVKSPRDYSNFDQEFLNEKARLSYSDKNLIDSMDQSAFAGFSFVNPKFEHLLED

Structure (SMILES) | Ki (PKC delta kinase) [nM] | Ki (PKC alpha kinase) [nM] | Ki (PKC theta kinase) [nM]
Nc1ncccc1C(=O)c1nc(OCC2(N)CCCC2)ccc1C(F)(F)F [compound 438] | 500 to 2800 | > 2800 | 500 to 2800
C=C(F)c1ccc(N2CCN[C@@H](CC(C)(C)F)C2)nc1C(=O)c1cccnc1N [compound 506] | 50 to 500 | 500 to 2800 | –
CN1CCC(N2CCN(c3cccc(C(=O)c4cc(Br)cnc4N)n3)CC2)CC1 [compound 101] | – | – | 500 to 2800
CC(C)C1OC(=O)N2CCN(c3ccc(C(F)(F)F)c(C(=O)c4cccnc4N)n3)CC12 (centres unmarked) [compound 453] | > 2800 | > 2800 | 500 to 2800
CC(C)(C)[C@H](N)COc1ccc(C(F)(F)F)c(C(=O)c2cccnc2N)n1 [compound 422] | 500 to 2800 | > 2800 | –
Nc1ncccc1C(=O)c1nc(NCC2CCC(N)CC2)ccc1C(F)(F)F (centres unmarked) [compound 460] | 500 to 2800 | > 2800 | –
CC(C)C[C@H]1CN(c2ccc(C(F)(F)F)c(C(=O)c3cccnc3N)n2)C[C@H](C)N1 [compound 483] | 500 to 2800 | 500 to 2800 | –
Nc1ncccc1C(=O)c1nc(N2CCNC(C(F)(F)F)C2)ccc1C(F)(F)F (centres unmarked) [compound 477] | 50 to 500 | > 2800 | –
CC[C@H]1CN(c2ccc(C(F)(F)F)c(C(=O)c3cccnc3N)n2)C[C@H](CC(C)C)N1 [compound 489] | 500 to 2800 | > 2800 | 500 to 2800
CC(C)C[C@H]1CN(c2ccc(C#CC(C)(C)O)c(C(=O)c3cccnc3N)n2)CCN1 [compound 467] | > 2800 | > 2800 | 500 to 2800
CC(C)(C)C(=O)N1CCCN(c2cccc(C(=O)c3cc(Br)cnc3N)n2)CC1 [compound 73] | – | – | 500 to 2800
Cc1ccc(CC(=O)N2CCCN(c3cccc(C(=O)c4cc(Br)cnc4N)n3)CC2)cc1 [compound 74] | – | – | 500 to 2800
Cc1ccc(-c2ccc(N3CCNCC3)nc2C(=O)c2cccnc2N)o1 [compound 470] | 50 to 500 | > 2800 | –
CCC[C@H]1CN(c2ccc(C(F)(F)F)c(C(=O)c3cccnc3N)n2)C[C@H](CC(C)C)N1 [compound 493] | 500 to 2800 | > 2800 | 500 to 2800
NCC1CCC(CNc2ccc(C(F)(F)F)c(C(=O)c3cccnc3N)n2)CC1 (centres unmarked) [compound 451] | > 2800 | > 2800 | –
Nc1ncccc1C(=O)c1nc(OCC(N)C2CCOCC2)ccc1C(F)(F)F (centres unmarked) [compound 433] | > 2800 | > 2800 | –
Cc1ccsc1CN1CCCN(c2cccc(C(=O)c3cc(Br)cnc3N)n2)CC1 [compound 139] | – | – | 500 to 2800
CC(C)[C@H]1CN(c2ccc(C(F)(F)F)c(C(=O)c3cccnc3N)n2)C[C@@H](c2ccccc2)N1 [compound 449] | > 2800 | > 2800 | 500 to 2800
CC[C@@H]1CN(c2ccc(C(F)(F)F)c(C(=O)c3cccnc3N)n2)C[C@H](C(C)C)N1 [compound 472] | > 2800 | > 2800 | 500 to 2800
CC(C)C[C@H]1CN(c2cc(C(=O)c3cccnc3N)c(-c3ccco3)cn2)CCN1 [compound 428] | > 2800 | > 2800 | 500 to 2800
Cc1ccoc1C(=O)N1CCCN(c2cccc(C(=O)c3cccnc3N)n2)CC1 [compound 91] | – | – | 500 to 2800
CC(C)(F)CC1CN(c2ccc(C(F)(F)F)c(C(=O)c3cccnc3N)n2)CCN1 (centres unmarked) [compound 464] | 50 to 500 | 500 to 2800 | –
Nc1ncc(Br)cc1C(=O)c1cccc(N2CCCN(Cc3ccccc3)CC2)n1 [compound 99] | – | – | 500 to 2800
CC(C)(C)OC(=O)NC1CCN(c2cccc(C(=O)c3cc(Br)cnc3N)n2)CC1 [compound 135] | – | – | 500 to 2800
CC(C)(C)C1CN(c2ccc(C(F)(F)F)c(C(=O)c3cccnc3N)n2)CCN1 (centres unmarked) [compound 456] | > 2800 | > 2800 | –

Structure (SMILES) | Ki (PKC delta kinase) [nM] | Ki (PKC alpha kinase) [nM] | Ki (PKC theta kinase) [nM]
Nc1ncccc1C(=O)c1cccc(N2CCCN(C(=O)Cc3cccc(O)c3)CC2)n1 [compound 77] | – | – | 500 to 2800
Nc1ncccc1C(=O)c1cccc(N2CCCN(C(=O)Cc3ccccc3Cl)CC2)n1 [compound 29] | – | – | 500 to 2800
CC(N)(CNc1ccc(C(F)(F)F)c(C(=O)c2cccnc2N)n1)Cc1ccccc1 (centres unmarked) [compound 452] | 50 to 500 | 500 to 2800 | –
N#CCC(=O)N1CCCN(c2cccc(C(=O)c3cccnc3N)n2)CC1 [compound 22] | – | – | 500 to 2800
Nc1ncccc1C(=O)c1nc(N2CCNC(CC(F)(F)F)C2)ccc1C(F)(F)F (centres unmarked) [compound 491] | 500 to 2800 | > 2800 | –
NCC1CCCC(CNc2ccc(C(F)(F)F)c(C(=O)c3cccnc3N)n2)C1 (centres unmarked) [compound 429] | 50 to 500 | > 2800 | –
Nc1ncccc1C(=O)c1nc(N2CCN[C@H](c3ccccc3)C2)ccc1C(F)(F)F [compound 447] | 500 to 2800 | 500 to 2800 | –
Nc1ncc(Br)cc1C(=O)c1cccc(N2CCCN(CCc3ccccc3)CC2)n1 [compound 114] | – | – | 500 to 2800
Cc1ccc(N2CCCNCC2)nc1C(=O)c1cccnc1N [compound 209] | 500 to 2800 | 500 to 2800 | –
CC(C)(C)CC(=O)N1CCCN(c2cccc(C(=O)c3cccnc3N)n2)CC1 [compound 26] | – | – | 500 to 2800
C=Cc1cnc(N)c(C(=O)c2nc(N3CCN[C@@H](CC(C)C)C3)ccc2C(F)(F)F)c1 [compound 487] | 50 to 500 | < 50 | –
CC(C)(C)N1CCN(c2cccc(C(=O)c3cccnc3N)n2)CC1 [compound 88] | – | – | 500 to 2800
CCC[C@H]1CN(c2ccc(C(F)(F)F)c(C(=O)c3cccnc3N)n2)C[C@@H](c2ccccc2)N1 [compound 481] | > 2800 | > 2800 | 500 to 2800
Nc1ncc(Br)cc1C(=O)c1cccc(N2CCCN(C(=O)Cc3ccccc3)CC2)n1 [compound 72] | – | – | 500 to 2800
CC(Nc1ccc(C(F)(F)F)c(C(=O)c2cccnc2N)n1)[C@@H](O)c1ccccc1 (some centres unmarked) [compound 430] | > 2800 | > 2800 | 500 to 2800
Nc1ncccc1C(=O)c1cccc(N2CCCN(C(=O)c3cccs3)CC2)n1 [compound 90] | > 2800 | – | 500 to 2800
CC(C)(CN)CNc1ccc(C(F)(F)F)c(C(=O)c2cccnc2N)n1 [compound 425] | 50 to 500 | 500 to 2800 | –
CC(C)(C)OC(=O)N1CCCN(c2nccc(C(=O)c3cccnc3N)n2)CC1 [compound 110] | – | – | 500 to 2800
Cc1ccc(-c2ccc(N3CCNC(c4ccccc4)C3)nc2C(=O)c2cccnc2N)o1 (centres unmarked) [compound 469] | 50 to 500 | 500 to 2800 | –
C=Cc1ccc(N2CCN[C@H](c3ccccc3)C2)nc1C(=O)c1cccnc1N [compound 445] | 500 to 2800 | 500 to 2800 | –
CN(C)C1CCN(c2cccc(C(=O)c3cccnc3N)n2)CC1 [compound 137] | – | – | 500 to 2800
Cc1ccccc1C(=O)N1CCCN(c2cccc(C(=O)c3cccnc3N)n2)CC1 [compound 89] | > 2800 | 500 to 2800 | –
Nc1ncc(Cl)cc1C(=O)c1nc(N2CCNCC2)ccc1C(F)(F)F [compound 495] | 50 to 500 | < 50 | –
Nc1ncccc1C(=O)c1nc(NCCO)ccc1C(F)(F)F [compound 423] | > 2800 | > 2800 | 500 to 2800
CC#Cc1ccc(N2CCN[C@H](c3ccccc3)C2)nc1C(=O)c1cccnc1N [compound 465] | 50 to 500 | 500 to 2800 | –
